# According to patent publication US20150087722A1, “TREATMENT FOR BREAST TUMOR CELL METASTASIS” (China Medical University, priority 2012, published 2015):
# Assays:
# [1] = test system: NF-κB in MDA-MB-231 cells; assay: NF-κB immunofluorescence staining; type: cell-based, human; details: MDA-MB-231, FIG. 7
# Method: FIG. 7 illustrates photographs taken at a 200× field under a fluorescence microscope, where a primary antibody NF-κB was used and the cells were stained through the immunofluenrence staining method. In the immunofluenrence staining, the compound II in different concentrations were used to stimulate MDA-MB-231 cells, and a primary antibody NF-κB (with a dilution ratio of 1:250) was added, and then the cells were cultured at an atmosphere of 5% CO2 for 2 h at 37° C. Subsequently a fluorescence secondary antibody (with a dilution ratio of 1:200) was added, and finally DAPI (with a dilution ratio of 1:1000) was added. The cells were stored with protect from light at the room temperature for 5 min. The cells were observed under the fluorescence microscope and a photograph (200×) of the cells was taken. Finally, the cells were mounted with the mounting gel.
# [2] = test system: ERK1/2, p38 and JNK1/2 in breast tumor cells; assay: western blotting of MAPK proteins and phosphorylation; type: cell-based, human; details: 2 μM, 0-120 min
# Method: The steps of western blotting include: washing cells with PBS twice at 4° C.; adding a lysis buffer and rubbing the cells by a rubbr policeman so as to lyse cells; putting the lysed cell solution into a 1.5 ml microcentrifuge tube and shaking for 1 min; centrifuging at 12000 rpm for 10 min and taking the supernatant; measuring concentration of the protein through a Bio-Rad protein assay kit; and storing the remained extracted protein solution at −70° C.; taking 100 μg protein solution and adding a SDS/protein loading buffer having the same volume, where the SDS/protein loading buffer has a concentration two times larger than the protein solution; boiling the mixture of the protein solution and the SDS/protein loading buffer at 100° C. for 10 min; cooling and loading the protein samples in each hole of gel; adjusting the voltage to 100 V and running the protein samples on the gel until the tracking dye in the sample buffer reaches the bottom of the gel; and subsequently transferring the protein from the gel using electrophoresis. […] Then luminescence image equipment was used, where the PVDF was placed onto a black metal plate by a plastic pincer and the face including protein was upwards, a 1:1 mixed Chemiluminesent Substrate was added into the membrane and the exposure time depends on the fluorescence intensity of antibodies. […]
compound,measurement,setting,value
COC1=C(OC)C(=O)C(C)=C(C)C1=O [compound II],expression of NF-κB,[1],inhibit expression of NF-κB
same,"phosphorylation of ERK1/2, p38 and JNK1/2",[2],probably inhibited
same,"protein expression of ERK1/2, p38 and JNK1/2",[2],not affected
